Results published in patent publication US10517806B2, “Antimicrobial foaming compositions containing cationic active ingredients” (ECOLAB USA INC., priority 2014, dated 2019).

Key:
E. coli (ATCC # 112229) = experiment: Time kill activity (ASTM E 2315), log reduction; assay type: cell-based, Escherichia coli; conditions: 30 seconds
Protocol: (§1) In this test, a diluted aliquot of the composition is brought into contact with a known population of test bacteria for a specified time period at a specified temperature. The test composition is neutralized at the end of the time period, which arrests the antimicrobial activity of the composition. The percent or, alternatively, log reduction from the original bacteria population is calculated. In general, the time kill method is known to those skilled in the art. […] The choice of which concentration to use is at the discretion of the investigator, and suitable concentrations are readily determined by those skilled in the art. All testing if performed in triplicate, the results are combined, and the average log reduction is reported. • (c) The choice of contact time period also is at the discretion of the investigator. Any contact time period can be chosen. Typical contact times range from 10 second to 5 minutes, with 30 seconds and 1 minute being typical contact times. The contact temperature also can be any temperature, typically room temperature, or about 25 degrees Celsius. • (d) The microbial suspension, or test inoculum, is prepared by growing a microbial culture on any appropriate solid media (e.g., agar). The microbial population then is washed from the agar with sterile physiological saline and the population of the microbial suspension is adjusted to about 10^8 colony forming units per ml (cfu/ml). • (e) The table below lists the test microbial cultures used in the following tests and includes the name of the bacteria, the ATCC (American Type Culture Collection) identification number, and the abbreviation for the name of the organism used hereafter.
(§2) The log reduction is calculated using the formula: Log reduction=log10(numbers control)−log10(test sample survivors). Foam Height Determination

S. aureus (ATCC # 6538) = experiment: Time kill activity (ASTM E 2315), log reduction; assay type: cell-based; conditions: 30 seconds
Protocol: as §1, §2

[1] = active at 0.65% w/w in the composition of formulation example 15, pH 6.25
[2] = active at 2% w/w in the composition of formulation example 15, pH 6.25
[3] = active at 4% w/w in the composition of formulation example 15, pH 6.25

Row | Molecule | E. coli log reduction (E. coli (ATCC # 112229); [1]) | S. Aureus log reduction (S. aureus (ATCC # 6538); [1]) | E. coli log reduction (E. coli (ATCC # 112229); [2]) | E. coli log reduction (E. coli (ATCC # 112229); [3]) | S. Aureus log reduction (S. aureus (ATCC # 6538); [2]) | S. Aureus log reduction (S. aureus (ATCC # 6538); [3])
1 | CC(C)(C)CC(C)(C)c1ccc(OCCOCC[N+](C)(C)Cc2ccccc2)cc1 [Benzethonium Chloride] | >5.73 | >5.39 | – | – | – | –
2 | N=C(NCCCCCCNC(=N)NC(=N)Nc1ccc(Cl)cc1)NC(=N)Nc1ccc(Cl)cc1.O=C(O)[C@H](O)[C@@H](O)[C@H](O)[C@H](O)CO.O=C(O)[C@H](O)[C@@H](O)[C@H](O)[C@H](O)CO [Chlorohexidine Gluconate] | – | – | >5.73 | >5.73 | >5.39 | >5.39
3 | CCCCCCCCCC[N+](C)(C)CCCCCCCCCC.[Cl-] [Didecyl Dimethyl Ammonium Chloride] | >5.73 | >5.39 | – | – | – | –
4 | Polyhexamethylene Biguanide | >5.73 | 3.10 | – | – | – | –
